Measurements published in patent publication US4689326A, “Process for controlling hyperlipidemia” (Research Corporation, priority 1985, dated 1987).
Like-named read-outs stand apart in the source and are kept apart here.

How the values were obtained:
serum cholesterol = assay: Testing of Normal Mice: serum cholesterol (modified Liebermann-Burchard), Example 7; assay type: in vivo, CF1 male mice; conditions: Mus musculus, 20 mg/kg/day ip
Procedure: Suspensions of Compounds Nos. 1-9 were prepared wherein the compounds were suspended in an aqueous 1% carboxymethylcelluose solution, homogenized and administered to CF1 male mice, each weighing approximately 25 grams, intraperitoneally on a daily basis for 16 days. The dosage was, with the exception of one compound, 20 milligrams of the active compound per kilogram of mouse weight per day. On days 9 and 16 blood was obtained by tail vein bleeding. The blood serum was separated by centrifugation for three minutes. Serum cholesterol levels were determined by a modification of the Liebermann-Burchard reaction. Serum was also collected on day 16 and the triglycerides content was determined by a commercial kit, BioDynamics/bnc Single Vile Colorimetric Method 348201. Each compound was tested on a group of six mice.
In addition to the above-described treated mice, untreated control groups of six mice were similarly tested on days 9 and 14 or 16 to determine their serum cholesterol and triglycerides blood levels. Table 5 reports the percent control, based on the serum cholesterol and serum triglyceride levels of the treated mice compared to the untreated controls. Table 5 also includes the standard deviation indicating the level of confidence of these numbers.
Example 7 was repeated substituting clofibrate, a compound used in the prior art to lower serum cholesterol and serum triglyceride levels. The clofibrate was administered as a suspension in an aqueous 1% solution of carboxymethylcellulose. However, unlike the compounds of the present invention which were administered at a dosage of 20 mg/kg day, ip, this compound was administered at the elevated concentration of 150 mg/kg day, ip.

serum triglycerides = assay: Testing of Normal Rats: serum triglycerides, Example 8; assay type: in vivo, Sprague Dawley male rats; conditions: oral 20 mg/kg/day
Procedure: In Example 8 a set of six Sprague Dawley male rats, each weighing approximately 350 grams, were orally treated with a concentration of 20 mg per kilogram of rat weight per day, again suspended in a 1% aqueous solution of CMC. The dosage was applied orally by an intubation needle. On days 9 and 16 serum cholesterol and serum triglycerides blood levels of the rats were measured utilizing th procedure of Example 7.
A control group of six similar Sprague Dawley male rats were untreated but tested on Days 9 and 16 in accordance with the tests administered to the treated rats. Table 6 reports the percent control based on the decrease in serum cholesterol and serum triglycerides of the treated rats compared to the levels measured in the untreated control group.

[1] = system: Mitochondrial Citrate Exchange; assay: In vitro enzyme activity, liver homogenate: mitochondrial citrate exchange; assay type: biochemical, CF1 male mouse; conditions: ± SD, N = 6
Procedure: (§1) In vitro enzymatic studies were undertaken using 10% homogenates of CF1 male mouse liver with […] of compound 3,4,5,6-dibenzohomopiperidine. In addition, in vivo enzymatic studies were performed, again using 10% liver homogenates (prepared in 0.25 M sucrose plus 0.001 M (ethylenedinitrilo)-tetraacetic acid, ph 7.25 from CF1 male mice obtained after administering 3,4,5,6-dibenzohomopiperidine for 16 days at a concentration ranging from 10 to 60 mg/kg/day, intraperitoneally.
(§2) The following enzyme activities were determined by following standard literature procedures: acetyl coenzyme synthetase; adenosine triphosphate dependent citrate lyase; mitochondrial citrate exchange; cholesterol/7 hydroxylase; 3-hydroxy-3-methyl-glutaryl coenzyme A reductase; acetyl coenzyme A carboxylase activity; fatty acid synthetase activity; sn-glycerol-3-phosphate acyl transferase activity; phosphatidate phosphohydrolase activity; cholesterol acyl transferase; and heparin activated hepatic lypoprotein lipase. Protein was determined for all enzyme assays by the Lowry et al. technique (J. Biol. Chem, 193, 265 (1951)).

[2] = molecular target: T1, Cholesterol-7 Hydroxylase (Mus musculus, UniProt Q64505); assay: In vitro enzyme activity, liver homogenate: cholesterol-7 hydroxylase; assay type: biochemical, CF1 male mouse; conditions: ± SD, N = 6, read-out: Percent Control, in vitro enzyme activity
T1 construct: 10% homogenates of CF1 male mouse liver; from tissue; host or cells: CF1 male mouse liver, 10% homogenate
T1 sequence (Q64505 whole entry): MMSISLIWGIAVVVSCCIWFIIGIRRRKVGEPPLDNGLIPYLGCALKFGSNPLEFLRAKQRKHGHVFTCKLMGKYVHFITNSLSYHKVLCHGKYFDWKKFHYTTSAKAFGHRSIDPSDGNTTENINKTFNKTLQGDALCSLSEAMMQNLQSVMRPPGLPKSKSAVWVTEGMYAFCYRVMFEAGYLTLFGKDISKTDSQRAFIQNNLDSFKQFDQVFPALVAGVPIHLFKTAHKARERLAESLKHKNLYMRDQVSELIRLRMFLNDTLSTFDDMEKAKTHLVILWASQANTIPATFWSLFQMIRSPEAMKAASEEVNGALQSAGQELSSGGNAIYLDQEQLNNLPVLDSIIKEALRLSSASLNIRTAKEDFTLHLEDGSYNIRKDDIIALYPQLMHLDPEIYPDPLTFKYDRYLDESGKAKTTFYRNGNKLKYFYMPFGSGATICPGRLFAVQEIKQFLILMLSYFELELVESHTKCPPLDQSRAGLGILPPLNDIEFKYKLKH
Procedure: as §1, §2

[3] = system: sn-Glycerol-3-Phosphate Acyl Transferase; assay: In vitro enzyme activity, liver homogenate: sn-glycerol-3-phosphate acyl transferase; assay type: biochemical, CF1 male mouse; conditions: ± SD, N = 6
Procedure: as §1, §2

[4] = molecular target: T2, Hepatic Lipoprotein Lipase (Mus musculus, UniProt P27656); assay: In vitro enzyme activity, liver homogenate: hepatic lipoprotein lipase; assay type: biochemical, CF1 male mouse; conditions: ± SD, N = 6, read-out: Percent Control, in vitro enzyme activity
T2 construct: 10% homogenates of CF1 male mouse liver; from tissue; host or cells: CF1 male mouse liver, 10% homogenate
T2 sequence (P27656 22-510): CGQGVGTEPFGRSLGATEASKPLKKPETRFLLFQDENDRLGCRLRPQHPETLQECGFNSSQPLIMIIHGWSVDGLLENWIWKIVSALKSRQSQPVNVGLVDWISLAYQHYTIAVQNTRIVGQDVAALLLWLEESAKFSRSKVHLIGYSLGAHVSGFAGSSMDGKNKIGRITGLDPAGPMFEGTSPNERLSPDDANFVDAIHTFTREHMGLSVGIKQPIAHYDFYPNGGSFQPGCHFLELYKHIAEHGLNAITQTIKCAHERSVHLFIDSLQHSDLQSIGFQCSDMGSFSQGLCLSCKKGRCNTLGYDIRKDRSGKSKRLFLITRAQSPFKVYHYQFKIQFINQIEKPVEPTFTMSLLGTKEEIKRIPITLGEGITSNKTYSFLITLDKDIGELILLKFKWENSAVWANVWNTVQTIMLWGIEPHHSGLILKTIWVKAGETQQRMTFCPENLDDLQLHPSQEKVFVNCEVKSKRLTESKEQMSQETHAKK
Procedure: as §1, §2

Acetyl CoA Synthetase = assay: In vivo enzyme activity, liver of treated mice: acetyl CoA synthetase; design: species or system CF1 male mice; conditions: 16 days, ± SD
Procedure: as §1, §2

[5] = system: Phosphatidate Phosphohydrolase; assay: In vivo enzyme activity, liver of treated mice: phosphatidate phosphohydrolase; design: species or system CF1 male mice; conditions: 16 days, ± SD
Procedure: as §1, §2

Liver = assay: Lipid Extraction Studies in Rats, Example 11: liver; assay type: in vivo, Sprague Dawley male rats; conditions: oral 20 mg/kg/day, fourteen days, ± SD

c1ccc2c(c1)CNCc1ccccc1-2 [Compound 3, 3,4,5,6-dibenzohomopiperidine]
response vs control in vivo at 20 mg/kg (serum cholesterol; 216 h, day 9, ± SD, read-out: Serum Cholesterol Control, % Day 9): 68 ± 4%
response vs control in vivo at 20 mg/kg (serum cholesterol; 384 h, day 16, ± SD, read-out: Serum Cholesterol Control, % Day 16): 48 ± 4%
% Control Serum Triglycerides Day 9 (serum triglycerides; day 9): 54%
% Control Serum Triglycerides Day 16 (serum triglycerides; day 16): 54%
Percent Control, in vitro enzyme activity ([1]; 50 μM): 99 ± 6%
Percent Control, in vitro enzyme activity ([1]; 100 μM): 97 ± 5%
Percent Control, in vitro enzyme activity ([1]; 200 μM): 99 ± 7%
remaining activity at 50 µM ([2]; 50 μM): 68 ± 7%
remaining activity at 100 µM ([2]; 100 μM): 72 ± 5%
remaining activity at 200 µM ([2]; 200 μM): 98 ± 7%
Percent Control, in vitro enzyme activity ([3]; 50 μM): 35 ± 6%
Percent Control, in vitro enzyme activity ([3]; 100 μM): 34 ± 5%
Percent Control, in vitro enzyme activity ([3]; 200 μM): 51 ± 4%
remaining activity at 50 µM ([4]; 50 μM): 90 ± 7%
remaining activity at 100 µM ([4]; 100 μM): 89 ± 6%
remaining activity at 200 µM ([4]; 200 μM): 72 ± 5%
Percent Control, in vivo enzyme activity (Acetyl CoA Synthetase; 10 mg/kg/day ip): 64 ± 6%
Percent Control, in vivo enzyme activity (Acetyl CoA Synthetase; 20 mg/kg/day ip): 95 ± 6%
Percent Control, in vivo enzyme activity (Acetyl CoA Synthetase; 40 mg/kg/day ip): 103 ± 8%
Percent Control, in vivo enzyme activity (Acetyl CoA Synthetase; 60 mg/kg/day ip): 81 ± 6%
Percent Control, in vivo enzyme activity ([5]; 10 mg/kg/day ip): 51 ± 4%
Percent Control, in vivo enzyme activity ([5]; 20 mg/kg/day ip): 47 ± 9%
Percent Control, in vivo enzyme activity ([5]; 40 mg/kg/day ip): 81 ± 6%
Percent Control, in vivo enzyme activity ([5]; 60 mg/kg/day ip): 100 ± 6%
Cholesterol, concentration as a function of control (Liver): 65 ± 5%
Mg Lipid Wt, concentration as a function of control (Liver): 89 ± 7%
Neutral Lipids, concentration as a function of control (Liver): 80 ± 5%
Phospholipids, concentration as a function of control (Liver): 98 ± 9%
Protein, concentration as a function of control (Liver): 97 ± 7%
Triglycerides, concentration as a function of control (Liver): 76 ± 6%
